Measurements: US8710064B2, “2-aryl-4-quinazolinones and their pharmaceutical compositions” (China Medical University, priority 2011, dated 2014)

Tested on: C6 glioma cells
Assay: G1 synchronized by Ara-C, flow cytometry
Format: cell-based, rat
Details: 41.6 nM Ara-C for 12 hours
Protocol: At indicated time points (0, 6, 12 and 24 hr), >10^6 cells were collected and fixed in 70% ethanol over 1 hour at −20° C. After staining with PI as described, DNA content of ten thousand cells was analyzed by flow cytometry.
To investigate the influence of MJ-66 on normal glia such as human glia cell line SVGP12 and rat primary glia cells, cells were treated with different concentrations of MJ-66 in vitro (0.00625, 0.0125, 0.025, 0.05, 0.1 and 1 μM) for different time durations (0, 6, 12 and 24 hours) and the cell viability was assessed by MTS assay. Cells alone or treated with DMSO were used as control. […] However, most glia cells in animals are static and their proliferation rate is almost silent. Therefore, cytosine arabinoside (Ara-C), a DNA synthesis inhibitor, was further used to inhibit glioma cell proliferation and glioma cells were then treated with MJ-66 or DMSO as described in “General materials and methods”. Specifically, after C6 glioma cells were treated with 41.6 nM Ara-C for 12 hours, and then treated with solvent (DMSO) or 60 nM MJ-66 for 0, 6, 12 and 24 hours, the cell cycle distributions and DNA content of the cells were monitored by flow cytometry with propidium iodide staining C6 glioma cells treated with 41.6 nM Ara-C for 12 hours (12 hr) were detected by flow cytometry with propidium iodide staining as control.

## Nc1ccn([C@@H]2O[C@H](CO)[C@@H](O)[C@@H]2O)c(=O)n1 [Ara-C, cytosine arabinoside, reference compound]
  cell cycle state of C6 glioma cells: G1 arrest
